Measurements reported in BindingDB's records for doi:10.1021/jm9708341 (University of Leipzig, 1998).

Biological target: T1, Neutrophil elastase (Homo sapiens, UniProt P08246)
T1 sequence (P08246 whole entry): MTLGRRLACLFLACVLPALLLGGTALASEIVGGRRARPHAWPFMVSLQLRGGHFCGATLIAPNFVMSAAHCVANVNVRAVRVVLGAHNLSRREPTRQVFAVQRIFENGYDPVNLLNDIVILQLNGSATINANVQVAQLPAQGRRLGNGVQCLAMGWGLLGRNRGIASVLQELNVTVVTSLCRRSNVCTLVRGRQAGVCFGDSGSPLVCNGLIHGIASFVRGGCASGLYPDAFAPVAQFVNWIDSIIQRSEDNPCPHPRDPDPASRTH
Assay: Steady state inhibition constant for Human Leukocyte Elastase inhibition
Conditions: for kon: read-out: kon (M-1-s-1)

koff	kon	SMILES
8.5e-05 s⁻¹	1130 M⁻¹ s⁻¹	Cc1sc2nc(NC(C)C)oc(=O)c2c1C [2-Isopropylamino-5,6-dimethyl-thieno[2,3-d][1,3]oxazin-4-one]
0.00156 s⁻¹	272000 M⁻¹ s⁻¹	CSc1nc2sc3c(c2c(=O)o1)CCCC3 [2-Methylsulfanyl-5,6,7,8-tetrahydro-benzo[4,5]thieno[2,3-d][1,3]oxazin-4-one]
0.000163 s⁻¹	685 M⁻¹ s⁻¹	COC(=O)CSc1nc2sc(C)c(C)c2c(=O)o1 [(5,6-Dimethyl-4-oxo-4H-thieno[2,3-d][1,3]oxazin-2-ylsulfanyl)-acetic acid methyl ester]
